Measurements published in patent publication US11655235B2, “Pyrrolidine and piperidine compounds” (YUHAN CORPORATION, priority 2019, dated 2023).
Where two headings read alike, the source gives them in different places.

Experiments:
Type in all cases: biochemical
recombinant human DPP9 = target: T1, recombinant human DPP9 (Homo sapiens, UniProt Q86TI2); assay: DPP9 inhibition, fluorogenic substrate H-Gly-Pro-AMC
T1 construct: purchased R&D Systems
In short: (§1)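 Inhibitors are titrated in an 8-point series into the enzyme's assay buffer (DMSO no more than 0.5%). Substrate cleavage at 25 °C is followed by fluorescence, excitation 380 nm and emission 460 nm. IC50 values come from a four-variable logistic model.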

Recombinant human FAP [1] = target: T2, Recombinant human FAP (Homo sapiens, UniProt Q12884); assay: FAP inhibition, fluorogenic substrate Z-Gly-Pro-AMC
T2 construct: purchased R&D systems
T2 sequence (Q12884 1-760): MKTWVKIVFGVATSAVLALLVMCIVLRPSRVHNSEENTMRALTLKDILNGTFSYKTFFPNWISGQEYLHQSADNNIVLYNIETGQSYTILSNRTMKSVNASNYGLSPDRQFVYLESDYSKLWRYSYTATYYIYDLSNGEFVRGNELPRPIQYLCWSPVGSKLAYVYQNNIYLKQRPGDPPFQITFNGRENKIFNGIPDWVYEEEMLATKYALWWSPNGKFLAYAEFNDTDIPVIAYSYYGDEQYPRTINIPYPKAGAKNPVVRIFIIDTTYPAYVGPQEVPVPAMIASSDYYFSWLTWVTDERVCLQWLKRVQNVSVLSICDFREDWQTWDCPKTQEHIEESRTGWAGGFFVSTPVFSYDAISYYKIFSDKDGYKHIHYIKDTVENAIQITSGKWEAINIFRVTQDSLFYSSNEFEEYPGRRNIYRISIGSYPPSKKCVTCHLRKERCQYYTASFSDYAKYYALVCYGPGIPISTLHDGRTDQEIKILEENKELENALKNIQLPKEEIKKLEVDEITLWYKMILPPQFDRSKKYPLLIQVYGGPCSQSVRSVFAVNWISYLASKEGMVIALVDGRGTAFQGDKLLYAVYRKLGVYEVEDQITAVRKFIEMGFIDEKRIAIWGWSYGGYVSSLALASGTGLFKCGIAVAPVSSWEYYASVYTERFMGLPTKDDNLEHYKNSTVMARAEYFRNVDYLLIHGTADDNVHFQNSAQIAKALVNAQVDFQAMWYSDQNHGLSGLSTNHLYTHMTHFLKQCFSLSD
In short: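 Eight-point compound dilutions (≤0.1% DMSO) were incubated at 25° C with 10 ng recombinant human FAP in Tris pH 7.5/1 M NaCl/BSA buffer and Z-Gly-Pro-AMC. Inhibition was taken as % drop in fluorescence rate (380/460 nm) against uninhibited control; IC50 came from a four-parameter logistic fit.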

recombinant human DPP7 = target: T3, recombinant human DPP7 (Homo sapiens, UniProt Q9UHL4); assay: DPP7 inhibition, fluorogenic substrate Lys-Pro-AMC
T3 construct: purchased R&D Systems
In short: as §1

recombinant human DPP8 = target: T4, recombinant human DPP8 (Homo sapiens, UniProt Q6V1X1); assay: DPP8 inhibition, fluorogenic substrate Z-Ala-Pro-AMC
T4 construct: purchased PBS Bioscience
T4 sequence (Q6V1X1 whole entry): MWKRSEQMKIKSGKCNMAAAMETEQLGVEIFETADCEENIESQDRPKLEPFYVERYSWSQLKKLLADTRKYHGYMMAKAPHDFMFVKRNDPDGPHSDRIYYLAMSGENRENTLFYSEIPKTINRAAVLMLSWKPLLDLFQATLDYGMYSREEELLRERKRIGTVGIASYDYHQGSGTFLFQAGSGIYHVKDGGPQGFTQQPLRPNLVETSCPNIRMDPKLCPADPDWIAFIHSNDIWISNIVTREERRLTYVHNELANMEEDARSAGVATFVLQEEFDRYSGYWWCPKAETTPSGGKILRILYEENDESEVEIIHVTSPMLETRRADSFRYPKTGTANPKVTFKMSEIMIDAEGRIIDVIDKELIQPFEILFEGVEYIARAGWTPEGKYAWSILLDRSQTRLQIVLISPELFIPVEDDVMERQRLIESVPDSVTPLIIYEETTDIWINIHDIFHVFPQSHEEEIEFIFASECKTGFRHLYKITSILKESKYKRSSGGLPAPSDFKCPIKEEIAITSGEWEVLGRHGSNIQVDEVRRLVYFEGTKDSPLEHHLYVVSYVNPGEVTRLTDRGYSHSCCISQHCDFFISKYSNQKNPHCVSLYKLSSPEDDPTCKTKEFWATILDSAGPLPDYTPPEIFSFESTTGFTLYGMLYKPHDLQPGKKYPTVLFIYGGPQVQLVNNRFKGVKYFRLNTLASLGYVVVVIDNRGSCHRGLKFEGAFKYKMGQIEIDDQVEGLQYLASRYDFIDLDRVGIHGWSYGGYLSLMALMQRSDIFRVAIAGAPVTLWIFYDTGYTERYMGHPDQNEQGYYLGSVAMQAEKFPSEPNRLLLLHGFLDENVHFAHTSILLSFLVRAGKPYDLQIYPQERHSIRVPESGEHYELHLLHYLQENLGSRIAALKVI
Method: The compounds according to the present technology were evaluated in terms of the inhibitory effect on the activity of dipeptidyl peptidases including FAP by using a substrate producing fluorescent substances upon enzymatic decomposition. The test was conducted at 25° C. to get a final reaction volume of 100 μL in a 96 black well plate. […] Briefly, the test compounds were dissolved in dimethyl sulfoxide (DMSO) at a concentration of 20 mM and then subjected to serial dilution, thereby creating an 8 point curve. As for the control group, a 6 point curve created by serial dilution of Talabostat in the same buffer solution was used. Fluorescence intensity was measured using a microplate reader (Flexstation3, Molecular Devices) under the wavelength condition exciting at 380 nm and reading the emission at 460 nm. The inhibitory effect of the test compounds was measured as a decrease (%) in the signal rate as compared to the control group without any inhibitor. Data was fixed to a logistic model with four variables and IC50 value was calculated using GraphPad Prism program. As for recombinant human DPP4 (R&D Systems), 25 mM tris (pH 8.0) buffer as a buffer solution and H-Gly-Pro-AMC (Bachem) as a substrate were used. As for recombinant human DPP7 (R&D Systems), 25 mM MES (pH 6.0) buffer as a buffer solution and Lys-Pro-AMC (Bachem) as a substrate were used. As for recombinant human DPP8 (PBS Bioscience), as a buffer solution, a 10 mM tris (pH 7.4) buffer comprising 10 mM of magnesium chloride and 0.05% of Tween 20, and Z-Ala-Pro-AMC (BPS Bioscience) as a substrate were used. As for recombinant human DPP9 (R&D Systems), a 25 mM tris (pH 8.0) buffer as a buffer solution and H-Gly-Pro-AMC (Bachem) as a substrate were used. As for recombinant human PREP (R&D System), as a buffer solution, a 25 mM tris (pH 7.5) buffer comprising 250 mM sodium chloride and 2.5 mM DTT (Dithiolthreitol), and Z-Gly-Pro-AMC (Bachem) as a substrate were used. The evaluation was made by using 10 ng of DPP4, PDD7, and PREP, 20 ng of DPP8, and 50 ng of DPP9 based on the final reaction. In the evaluation of DPP4, the test compounds were subjected to serial dilution in a buffer under the condition containing up to 0.1% of DMSO. In the evaluation of DPP7, DPP8, DPP9, and PREP, the test compounds were subjected to serial dilution in each buffer under the condition containing up to 0.5% of DMSO.

recombinant human PREP = target: T5, recombinant human PREP (Homo sapiens, UniProt P48147); assay: PREP inhibition, fluorogenic substrate Z-Gly-Pro-AMC; details: Inhibitory Activity (IC50, nM) PREP
T5 construct: purchased R&D System
T5 sequence (P48147 1-710): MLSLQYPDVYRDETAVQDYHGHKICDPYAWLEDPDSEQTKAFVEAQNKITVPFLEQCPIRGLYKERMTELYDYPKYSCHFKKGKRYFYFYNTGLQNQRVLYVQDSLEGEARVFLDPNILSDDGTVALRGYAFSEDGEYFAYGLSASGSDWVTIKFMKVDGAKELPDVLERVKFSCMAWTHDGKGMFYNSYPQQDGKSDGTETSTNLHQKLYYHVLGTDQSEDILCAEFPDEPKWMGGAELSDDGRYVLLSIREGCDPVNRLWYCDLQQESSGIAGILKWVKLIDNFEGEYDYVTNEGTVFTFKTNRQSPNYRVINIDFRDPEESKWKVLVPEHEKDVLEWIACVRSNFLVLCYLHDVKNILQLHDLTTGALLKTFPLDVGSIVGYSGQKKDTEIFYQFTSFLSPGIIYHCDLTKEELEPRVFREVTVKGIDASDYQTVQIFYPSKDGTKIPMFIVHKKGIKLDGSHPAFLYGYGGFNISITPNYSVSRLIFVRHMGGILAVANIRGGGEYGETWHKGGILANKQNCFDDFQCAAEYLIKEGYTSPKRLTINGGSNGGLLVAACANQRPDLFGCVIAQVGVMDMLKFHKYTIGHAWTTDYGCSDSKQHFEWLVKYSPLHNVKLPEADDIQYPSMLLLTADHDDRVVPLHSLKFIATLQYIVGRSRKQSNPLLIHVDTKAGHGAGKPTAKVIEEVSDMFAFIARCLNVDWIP
In short: as §1

Recombinant human FAP [2] = target: T2, Recombinant human FAP; assay: FAP FRET assay, FGF21-sequence FRET peptide substrate; details: FRET peptide with human FGF21 sequence, 6 μM, 37° C.
In short: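 FRET peptide bearing human FGF21 sequence (6 μM final) cleaved by 10 ng recombinant human FAP at 37° C in HEPES pH 7.2 buffer with NaCl, BSA and EDTA, DMSO up to 0.1%. Signal-rate decrease versus uninhibited control fitted to a four-variable logistic model for IC50.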

DPP4 = DPP4 (Homo sapiens, UniProt P27487); assay: DPP4 inhibition, fluorogenic substrate H-Gly-Pro-AMC; parameters: purchased R&D Systems; details: recombinant human DPP4
Sequence of DPP4 (P27487 whole entry): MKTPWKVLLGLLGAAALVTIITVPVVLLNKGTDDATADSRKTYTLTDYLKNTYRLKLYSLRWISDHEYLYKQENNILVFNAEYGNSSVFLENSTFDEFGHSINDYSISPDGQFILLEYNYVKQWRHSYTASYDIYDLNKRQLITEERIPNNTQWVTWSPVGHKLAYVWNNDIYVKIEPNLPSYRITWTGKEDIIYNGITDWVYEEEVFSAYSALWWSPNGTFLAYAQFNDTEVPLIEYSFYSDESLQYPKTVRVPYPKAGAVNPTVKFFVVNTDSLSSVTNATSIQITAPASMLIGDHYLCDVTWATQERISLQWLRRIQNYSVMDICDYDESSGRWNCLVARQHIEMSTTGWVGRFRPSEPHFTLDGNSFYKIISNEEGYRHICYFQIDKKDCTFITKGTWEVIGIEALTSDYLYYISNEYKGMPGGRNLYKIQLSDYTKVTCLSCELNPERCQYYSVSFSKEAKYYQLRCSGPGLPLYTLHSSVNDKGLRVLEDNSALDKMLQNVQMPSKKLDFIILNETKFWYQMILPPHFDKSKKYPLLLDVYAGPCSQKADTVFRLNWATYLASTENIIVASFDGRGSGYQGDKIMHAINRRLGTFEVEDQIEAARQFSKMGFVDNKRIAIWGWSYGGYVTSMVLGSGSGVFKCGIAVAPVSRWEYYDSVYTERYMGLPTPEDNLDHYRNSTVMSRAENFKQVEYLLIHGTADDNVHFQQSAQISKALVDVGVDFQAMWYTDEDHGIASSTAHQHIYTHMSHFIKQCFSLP

[3] = 25° C., H-Gly-Pro-AMC substrate
[4] = 25° C., Z-Gly-Pro-AMC substrate
[5] = 25° C., Z-Ala-Pro-AMC substrate

T1 sequence (Q86TI2 whole entry): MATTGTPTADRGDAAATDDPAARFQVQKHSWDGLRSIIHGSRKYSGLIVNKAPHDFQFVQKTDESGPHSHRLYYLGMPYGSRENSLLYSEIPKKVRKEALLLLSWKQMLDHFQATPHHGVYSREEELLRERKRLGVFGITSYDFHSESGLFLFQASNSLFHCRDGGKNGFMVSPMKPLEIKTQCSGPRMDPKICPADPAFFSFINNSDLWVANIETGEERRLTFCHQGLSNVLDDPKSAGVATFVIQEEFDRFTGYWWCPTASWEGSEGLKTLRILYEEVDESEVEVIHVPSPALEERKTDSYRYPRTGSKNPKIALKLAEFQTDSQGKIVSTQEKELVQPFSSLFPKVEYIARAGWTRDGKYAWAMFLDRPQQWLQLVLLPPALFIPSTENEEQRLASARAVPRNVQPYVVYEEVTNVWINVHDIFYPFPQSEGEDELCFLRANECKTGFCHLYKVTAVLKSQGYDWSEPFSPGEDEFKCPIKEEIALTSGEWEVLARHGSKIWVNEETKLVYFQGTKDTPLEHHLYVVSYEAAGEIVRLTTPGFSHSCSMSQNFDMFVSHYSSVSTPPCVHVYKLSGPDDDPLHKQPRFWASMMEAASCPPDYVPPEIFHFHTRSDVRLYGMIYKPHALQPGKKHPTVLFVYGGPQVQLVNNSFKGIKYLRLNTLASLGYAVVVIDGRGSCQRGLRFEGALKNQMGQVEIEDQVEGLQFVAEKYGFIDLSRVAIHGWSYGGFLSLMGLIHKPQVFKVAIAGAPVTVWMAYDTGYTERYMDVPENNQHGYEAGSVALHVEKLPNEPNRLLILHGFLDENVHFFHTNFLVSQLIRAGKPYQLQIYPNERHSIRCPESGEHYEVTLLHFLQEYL

Structure (SMILES)	IC50 (recombinant human DPP9; [3])	IC50 (Recombinant human FAP [1]; [4])	IC50 (recombinant human DPP7)	IC50 (recombinant human DPP8; [5])	IC50 (recombinant human PREP; [4])	IC50 (recombinant human DPP9; recombinant human DPP9)	IC50 (recombinant human DPP7; recombinant human DPP7)	IC50 (Recombinant human FAP [2])	IC50 (DPP4)	IC50 (recombinant human PREP; recombinant human PREP)	IC50 (Recombinant human FAP [1]; recombinant human FAP, substrate Z-Gly-Pro-AMC)	IC50 (recombinant human DPP8; recombinant human DPP8)
CN(c1cnc2ccccc2c1)[C@@H]1CCN(CC(=O)N2CCC[C@H]2C#N)C1 [Example 138, (2S)-1-[2-[(3R)-3-[methyl(3-quinolyl)amino]pyrrolidin-1-yl]acetyl]pyrrolidine-2-carbonitrile]	≥ 100 µM	0.0248 µM	3.7 µM	≥ 100 µM	7970 nM							
CN(c1cccc2ncccc12)[C@@H]1CCN(CC(=O)N2CCC[C@H]2C#N)C1 [Example 139, (2S)-1-[2-[(3R)-3-[methyl(5-quinolyl)amino]pyrrolidin-1-yl]acetyl]pyrrolidine-2-carbonitrile]	89 µM	0.0167 µM	13 µM	≥ 100 µM	5020 nM							
CN(c1ccc2ncccc2c1)[C@@H]1CCN(CC(=O)N2CCC[C@H]2C#N)C1 [Example 140, (2S)-1-[2-[(3R)-3-[methyl(6-quinolyl)amino]pyrrolidin-1-yl]acetyl]pyrrolidine-2-carbonitrile]	32.6 µM	0.0157 µM	1.4 µM	≥ 100 µM	4260 nM							
CN(c1cnc2ccccc2c1)[C@H]1CCN(CC(=O)N2CCC[C@H]2C#N)C1 [Example 142, (2S)-1-[2-[(3S)-3-[methyl(3-quinolyl)amino]pyrrolidin-1-yl]acetyl]pyrrolidine-2-carbonitrile]	71 µM	0.0026 µM	4.99 µM	≥ 100 µM	4510 nM							
CN(c1cccc2ncccc12)[C@H]1CCN(CC(=O)N2CCC[C@H]2C#N)C1 [Example 144, (2S)-1-[2-[(3S)-3-[methyl(5-quinolyl)amino]pyrrolidin-1-yl]acetyl]pyrrolidine-2-carbonitrile]	23.8 µM	0.006 µM	19.3 µM	85 µM	3360 nM							
CN(c1ccc2ncccc2c1)[C@H]1CCN(CC(=O)N2CCC[C@H]2C#N)C1 [Example 145, (2S)-1-[2-[(3S)-3-[methyl(6-quinolyl)amino]pyrrolidin-1-yl]acetyl]pyrrolidine-2-carbonitrile]	16.8 µM	0.0027 µM	2.03 µM	19.1 µM	2690 nM							

Further lines, results first:

IC50 (recombinant human DPP9; [3])	IC50 (Recombinant human FAP [1]; [4])	IC50 (recombinant human DPP7)	IC50 (recombinant human DPP8; [5])	IC50 (recombinant human PREP; [4])	IC50 (recombinant human DPP9; recombinant human DPP9)	IC50 (recombinant human DPP7; recombinant human DPP7)	IC50 (Recombinant human FAP [2])	IC50 (DPP4)	IC50 (recombinant human PREP; recombinant human PREP)	IC50 (Recombinant human FAP [1]; recombinant human FAP, substrate Z-Gly-Pro-AMC)	IC50 (recombinant human DPP8; recombinant human DPP8)	Structure (SMILES)
≥ 100 µM	0.0066 µM	0.916 µM	≥ 100 µM	4590 nM								CN(c1ccc2cccnc2c1)[C@H]1CCN(CC(=O)N2CCC[C@H]2C#N)C1 [Example 146, (2S)-1-[2-[(3S)-3-[methyl(7-quinolyl)amino]pyrrolidin-1-yl]acetyl]pyrrolidine-2-carbonitrile]
					7.42 µM	0.875 µM	0.0031 µM	16.4 µM	1770 nM			N#C[C@@H]1CCCN1C(=O)CN1CCC(Nc2ccc(C(=O)Nc3ccccc3)c3ncccc23)CC1 [Example 396, 5-[[1-[2-oxo-2-[(2S)-2-cyanopyrrolidin-1-yl]ethyl]-4-piperidyl]amino]-N-phenyl-quinoline-8-carboxamide]
					1.86 µM	0.0626 µM	0.0075 µM	1.32 µM	1630 nM			CC(=O)Nc1ccc(NC2CCN(CC(=O)N3C[C@@H](F)C[C@H]3C#N)CC2)c2cccnc12 [Example 409, N-[5-[[1-[2-oxo-2-[(2S,4S)-2-cyano-4-fluoro-pyrrolidin-1-yl]ethyl]-4-piperidyl]amino]-8-quinolyl]acetamide]
					48.9 µM	3.89 µM		> 10 µM		0.0023 µM	13.1 µM	COc1ccc2nc(C)cc(OC3CCN(CC(=O)N4C[C@@H](F)C[C@H]4C#N)CC3)c2c1 [Example 424, (2S,4S)-4-fluoro-1-[2-[4-[(6-methoxy-2-methyl-4-quinolyl)oxy]-1-piperidyl]acetyl]pyrrolidine-2-carbonitrile]
					33.8 µM	2.15 µM	0.007 µM	7.24 µM	1330 nM			N#C[C@@H]1C[C@H](F)CN1C(=O)CN1CCC(Oc2cccc3ncccc23)CC1 [Example 425, (2S,4S)-4-fluoro-1-[2-[4-(5-quinolyloxy)-1-piperidyl]acetyl]pyrrolidine-2-carbonitrile]
					≥ 100 µM	9.4 µM	0.0039 µM	54.8 µM	10800 nM			COc1ccc2nccc(OC3CCN(CC(=O)N4CCC[C@H]4C#N)CC3)c2c1 [Example 426, (2S)-1-[2-[4-[(6-methoxy-4-quinolyl)oxy]-1-piperidyl]acetyl]pyrrolidine-2-carbonitrile]
